Experimental data as given in patent US20170334899A1, “AMINO-SUBSTITUTED ISOTHIAZOLES” (Bayer Pharma Aktiengesellschaft, priority 2014, published 2017).

Tests used:
[1] = system: human cervical tumor cell line HeLa (ATCC CCL-2); test: SAC-Formation - Paclitaxel-Induced Assay; format: cell-based; conditions: Homo sapiens, HeLa, 24 h, HeLa cells, paclitaxel 0.05 μM, test range 0.005 μM-20 μM, read-out: IC50 [mol/l] SAC-Formation - Paclitaxel-Induced Assay
Summary of the method: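 HeLa cells incubated overnight at 37° C, then given paclitaxel (0.05 μM final) plus test compound (0.005–20 μM, 0.5% DMSO) together for 24 h at 37° C. Fixed cells stained for phospho-histone H3 Ser10 (mitotic cells) and Hoechst 33342 (cell count); imaging-derived mitotic index fitted by four-parameter Hill equation.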

[2] = target: T1, CDK2/CycE (Homo sapiens, UniProt P24941); test: CDK2/CycE kinase assay (TR-FRET); format: biochemical; conditions: avg, read-out: CDK2 avg (IC50 [mol/l])
T1 construct: GST; purchased ProQinase GmbH (Freiburg, Germany); host or cells: insect cells (Sf9)
Summary of the method: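 GST-tagged human CDK2 and CycE from Sf9 cells, preincubated 15 min with compound, then 25 min at 22° C. with 10 μM ATP and 0.75 μM biotinylated Rb-derived peptide (final). Phospho-substrate read by TR-FRET (anti-pRB pSer807/pSer811, Eu anti-mouse IgG, streptavidin-XL665), 665/620 nm ratio, normalised to no-inhibitor and no-enzyme controls.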

`Cc1nsc(Nc2cncc(C(F)(F)F)n2)c1C(=O)Nc1ccc(F)c(OC2CCN(CC(F)F)CC2)c1` [Example 268, N-(3-{[1-(2,2-difluoroethyl)piperidin-4-yl]oxy}-4-fluorophenyl)-3-methyl-5-{[6-(trifluoromethyl)pyrazin-2-yl]amino}-1,2-thiazole-4-carboxamide] showed an IC50 [1] of 0.11 µM and an IC50 [2] of over 20 µM.

Work on `Cc1nsc(Nc2cncc(C(F)(F)F)n2)c1C(=O)Nc1ccc(OC2CCN(CCC(F)(F)F)CC2)nc1` [Example 304, 3-methyl-5-{[6-(trifluoromethyl)pyrazin-2-yl]amino}-N-(6-{[1-(3,3,3-trifluoropropyl)piperidin-4-yl]oxy}pyridin-3-yl)-1,2-thiazole-4-carboxamide] yielded an IC50 [1] of 0.09 µM and an IC50 [2] of over 20 µM.

For `Cc1nsc(Nc2cncc(C(F)(F)F)n2)c1C(=O)Nc1ccc(C(=O)NC2CN(CC(F)(F)F)C2)cc1` [Example 280, 3-methyl-N-(4-{[1-(2,2,2-trifluoroethyl)azetidin-3-yl]carbamoyl}phenyl)-5-{[6-(trifluoromethyl)pyrazin-2-yl]amino}-1,2-thiazole-4-carboxamide], the IC50 [1] was 3.7 µM and the IC50 [2] was 11 µM.

Work on `Cc1nsc(Nc2cncc(C(F)(F)F)n2)c1C(=O)Nc1ccc(OCCCO)nc1` [Example 278, N-[6-(3-hydroxypropoxy)pyridin-3-yl]-3-methyl-5-{[6-(trifluoromethyl)pyrazin-2-yl]amino}-1,2-thiazole-4-carboxamide] yielded an IC50 [1] of 1.4 µM and an IC50 [2] of over 20 µM.

`Cc1nsc(Nc2cnc(C(F)(F)F)cn2)c1C(=O)Nc1ccc(F)c(OCC2CCN(CCF)C2)c1` (centres unmarked) [Example 317, N-(4-fluoro-3-{[1-(2-fluoroethyl)pyrrolidin-3-yl]methoxy}phenyl)-3-methyl-5-{[5-(trifluoromethyl)pyrazin-2-yl]amino}-1,2-thiazole-4-carboxamide] showed an IC50 [1] of 0.61 µM and an IC50 [2] of over 20 µM.

Work on `Cc1nsc(Nc2cnc(C(F)(F)F)cn2)c1C(=O)Nc1ccc(OC2CCN(CCC(F)(F)F)C2)nc1` (centres unmarked) [Example 298, 3-methyl-5-{[5-(trifluoromethyl)pyrazin-2-yl]amino}-N-(6-{[1-(3,3,3-trifluoropropyl)pyrrolidin-3-yl]oxy}pyridin-3-yl)-1,2-thiazole-4-carboxamide] yielded an IC50 [1] of 0.74 µM and an IC50 [2] of over 20 µM.

With `Cc1nsc(Nc2cnc(C(F)(F)F)cn2)c1C(=O)Nc1ccc(OCCO)nc1` [Example 277, N-[6-(2-hydroxyethoxy)pyridin-3-yl]-3-methyl-5-{[5-(trifluoromethyl)pyrazin-2-yl]amino}-1,2-thiazole-4-carboxamide] the IC50 [1] was 10 µM and the IC50 [2] was over 20 µM.

Work on `Cc1nsc(Nc2cnc(C(F)(F)F)cn2)c1C(=O)Nc1ccc(C(=O)NC2CN(CC(F)F)C2)cc1` [Example 271, N-(4-{[1-(2,2-difluoroethyl)azetidin-3-yl]carbamoyl}phenyl)-3-methyl-5-{[5-(trifluoromethyl)pyrazin-2-yl]amino}-1,2-thiazole-4-carboxamide] yielded an IC50 [1] of 2.1 µM and an IC50 [2] of over 20 µM.

For `Cc1nsc(Nc2cnc(C(F)(F)F)cn2)c1C(=O)Nc1ccc(OCCNCCF)nc1` [Example 321, N-(6-{2-[(2-fluoroethyl)amino]ethoxy}pyridin-3-yl)-3-methyl-5-{[5-(trifluoromethyl)pyrazin-2-yl]amino}-1,2-thiazole-4-carboxamide], the IC50 [1] was 1.1 µM and the IC50 [2] was at least 20 µM.

With `Cc1nsc(Nc2cnc(C(F)(F)F)cn2)c1C(=O)Nc1ccc(OCCNCC(F)F)nc1` [Example 305, N-(6-{2-[(2,2-difluoroethyl)amino]ethoxy}pyridin-3-yl)-3-methyl-5-{[5-(trifluoromethyl)pyrazin-2-yl]amino}-1,2-thiazole-4-carboxamide] the IC50 [1] was 0.22 µM and the IC50 [2] was at least 20 µM.

`Cc1nsc(Nc2cnc3ccccc3n2)c1C(=O)Nc1cccc(NS(=O)(=O)C2CCN(C(=O)OC(C)(C)C)CC2)c1` [Example 258, tert-butyl 4-{[3-({[3-methyl-5-(quinoxalin-2-ylamino)-1,2-thiazol-4-yl]carbonyl}amino)phenyl]sulfamoyl} piperidine-1-carboxylate] gave an IC50 [1] of 2 µM and an IC50 [2] of over 20 µM.

For `Cc1nsc(Nc2cnc(C(F)(F)F)cn2)c1C(=O)Nc1ccc(F)c(OC2CCN(CC(F)(F)F)CC2)c1` [Example 264, N-(4-fluoro-3-{[1-(2,2,2-trifluoroethyl)piperidin-4-yl]oxy}phenyl)-3-methyl-5-{[5-(trifluoromethyl)pyrazin-2-yl]amino}-1,2-thiazole-4-carboxamide], the IC50 [1] was 0.072 µM and the IC50 [2] was over 20 µM.

Molecule `Cc1nsc(Nc2cnc(C(F)(F)F)cn2)c1C(=O)Nc1ccc(OCCCNCC(F)(F)F)nc1` [Example 292, 3-methyl-N-(6-{3-[(2,2,2-trifluoroethyl)amino]propoxy}pyridin-3-yl)-5-{[5-(trifluoromethyl)pyrazin-2-yl]amino}-1,2-thiazole-4-carboxamide] has an IC50 [1] of 0.42 µM and an IC50 [2] of over 20 µM.

`COC(=O)CCc1cccc(NC(=O)c2c(C)nsc2Nc2cnc3ccccc3n2)c1` [Example 257, methyl 3-[3-({[3-methyl-5-(quinoxalin-2-ylamino)-1,2-thiazol-4-yl]carbonyl}amino)phenyl]propanoate] showed an IC50 [1] of 2.7 µM and an IC50 [2] of over 20 µM.

`Cc1nsc(Nc2cnc(C(F)(F)F)cn2)c1C(=O)Nc1ccc(F)c(OCCCNCC(F)(F)F)c1` [Example 306, N-(4-fluoro-3-{3-[(2,2,2-trifluoroethyl)amino]propoxy}phenyl)-3-methyl-5-{[5-(trifluoromethyl)pyrazin-2-yl]amino}-1,2-thiazole-4-carboxamide] was tested, and the IC50 [1] was 0.095 µM and the IC50 [2] was at least 20 µM.

For `Cc1nsc(Nc2ccc(C#N)cn2)c1C(=O)Nc1ccc(OC2CCN(C(=O)OC(C)(C)C)CC2)nc1` [Example 27, tert-Butyl 4-({5-[({5-[(5-cyanopyridin-2-yl)amino]-3-methyl-1,2-thiazol-4-yl}-carbonyl)amino]pyridin-2-yl}oxy)piperidine-1-carboxylate], the IC50 [1] was 0.13 µM and the IC50 [2] was at least 20 µM.

`Cc1nsc(Nc2cnc3ccccc3n2)c1C(=O)Nc1ccc(N2CCN(C(=O)OC(C)(C)C)CC2)nc1` [Example 248, tert-butyl 4-[5-({[3-methyl-5-(quinoxalin-2-ylamino)-1,2-thiazol-4-yl]carbonyl}amino)pyridin-2-yl]piperazine-1-carboxylate] was tested, and the IC50 [1] was 0.94 µM and the IC50 [2] was over 20 µM.

`Cc1nsc(Nc2cncc(C(F)(F)F)n2)c1C(=O)Nc1ccc(C(=O)N2CCN(CC(F)F)CC2)cc1` [Example 273, N-(4-{[4-(2,2-difluoroethyl)piperazin-1-yl]carbonyl}phenyl)-3-methyl-5-{[6-(trifluoromethyl)pyrazin-2-yl]amino}-1,2-thiazole-4-carboxamide] showed an IC50 [1] of 4.8 µM and an IC50 [2] of over 20 µM.

`Cc1nsc(Nc2cnc(C(F)(F)F)cn2)c1C(=O)Nc1ccc(C(=O)NC2CN(CC(F)(F)F)C2)cc1` [Example 270, 3-methyl-N-(4-{[1-(2,2,2-trifluoroethyl)azetidin-3-yl]carbamoyl}phenyl)-5-{[5-(trifluoromethyl)pyrazin-2-yl]amino}-1,2-thiazole-4-carboxamide] was tested, and the IC50 [1] was 10 µM and the IC50 [2] was over 20 µM.

`Cc1nsc(Nc2cnc(C(F)(F)F)cn2)c1C(=O)Nc1ccc(F)c(OCC2CCN(CCF)CC2)c1` [Example 309, N-(4-fluoro-3-{[1-(2-fluoroethyl)piperidin-4-yl]methoxy}phenyl)-3-methyl-5-{[5-(trifluoromethyl)pyrazin-2-yl]amino}-1,2-thiazole-4-carboxamide] was tested, and the IC50 [1] was 0.61 µM and the IC50 [2] was at least 20 µM.

In the case of `Cc1nsc(Nc2cnc3ccccc3n2)c1C(=O)Nc1cccc(NS(=O)(=O)C2CN(CC(F)(F)F)C2)c1` [Example 285, 3-methyl-5-(quinoxalin-2-ylamino)-N-[3-({[1-(2,2,2-trifluoroethyl)azetidin-3-yl]sulfonyl}amino)phenyl]-1,2-thiazole-4-carboxamide], the IC50 [1] is reported as 6.1 µM and the IC50 [2] is reported as over 20 µM.

Molecule `Cc1nsc(Nc2cnc(C(F)(F)F)cn2)c1C(=O)Nc1ccc(F)c(OCC2CCN(CC(F)F)C2)c1` (centres unmarked) [Example 316, N-(3-{[1-(2,2-difluoroethyl)pyrrolidin-3-yl]methoxy}-4-fluorophenyl)-3-methyl-5-{[5-(trifluoromethyl)pyrazin-2-yl]amino}-1,2-thiazole-4-carboxamide] has an IC50 [1] of 0.045 µM and an IC50 [2] of at least 20 µM.

Molecule `Cc1nsc(Nc2cnc3ccccc3n2)c1C(=O)Nc1cccc(NS(=O)(=O)C2CN(CCC(F)(F)F)C2)c1` [Example 288, 3-methyl-5-(quinoxalin-2-ylamino)-N-[3-({[1-(3,3,3-trifluoropropyl)azetidin-3-yl]sulfonyl}amino)phenyl]-1,2-thiazole-4-carboxamide] has an IC50 [1] of 6.1 µM and an IC50 [2] of over 20 µM.

With `Cc1nsc(Nc2cc(C#N)ccn2)c1C(=O)Nc1ccc(OC2CCN(CC(F)(F)F)CC2)nc1` [Example 25, 5-[(4-Cyanopyridin-2-yl)amino]-3-methyl-N-(6-{[1-(2,2,2-trifluoroethyl)piperidin-4-yl]oxy}pyridin-3-yl)-1,2-thiazole-4-carboxamide] the IC50 [1] was 0.066 µM and the IC50 [2] was at least 20 µM.

`Cc1nsc(Nc2cnc(C(F)(F)F)cn2)c1C(=O)Nc1ccc(C(=O)N2CCN(C)CC2)cc1` [Example 262, 3-methyl-N-{4-[(4-methylpiperazin-1 yl)carbonyl]phenyl}-5-{[5-(trifluoromethyl)pyrazin-2-yl]amino}-1,2-thiazole-4-carboxamide] was tested, and the IC50 [1] was 4.8 µM and the IC50 [2] was over 20 µM.
